Data on nine molecules can be found in patent US20220162163A1, “ALANINE-BASED MODULATORS OF PROTEOLYSIS AND ASSOCIATED METHODS OF USE” (Arvinas Operations, Inc., priority 2015, published 2022).

What all share (assay type): cell-based
In one assay the target is T1, JNK1 (Homo sapiens, UniProt P45983).
T1 construct: A549 lung adenocarcinoma cells were purchased from ATCC and cultured in RPMI1640 Medium; endogenous in cells; host or cells: A549
In words: Cellular assay of JNK degradation (A549 cells, Western blot), JNK1. The conditions noted are these: for JNK1 degradation range: PROTAC concentration 1 μM, relative to DMSO control; for DC50: read-out: JNK1 DC50 range. The protocol: (§1) Protocol of the cellular assay of JNK degradation (A549 cells, Western blot). A549 lung adenocarcinoma cells were purchased from ATCC and cultured in RPMI1640 Medium (Gibco) supplemented with 10% Fetal Bovine Serum (Gibco). […] Cells were stimulated with PMA (Phorbol 12-myristate 13-acetate, Sigma) for 1 hour before harvesting. Cells were lysed in Cell Signaling lysis buffer supplemented with protease inhibitors (Thermo). The lysates were centrifuged at 20,000×g for 15 minutes to clarify, and protein concentration was determined by BCA (Pierce). Equal amounts of protein (5 micrograms) were separated by SDS-PAGE and transferred onto nitrocellulose membranes. The mermbranes were probed with antibodies against SAPK/JNK (Cell Signaling #9252), phospho-c-Jun (Cell Signaling #3270), MDM2 (Sigma M4308) and p53 (Cell Signaling #2527). HRP-conjugated anti-rabbit and anti-mouse secondary antibodies were from Cell Signaling. The bands were visualized with SuperSignal West Femto Substrate (Thermo). Quantitation was done using Image Lab Software v5.2.1.
(In general: A western blot detects proteins with antibodies after separation by electrophoresis.)

The next assay deals with T2, JNK2 (Homo sapiens, UniProt P45984).
T2 construct: A549 lung adenocarcinoma cells were purchased from ATCC and cultured in RPMI1640 Medium; endogenous in cells; host or cells: A549
The assay can be described thus: Cellular assay of JNK degradation (A549 cells, Western blot), JNK2. The conditions noted are these: for JNK2 degradation range: PROTAC concentration 1 μM, relative to DMSO control; for DC50: read-out: JNK2 DC50 range. The method, then: as §1

Another assay concerns the target T3, Androgen receptor (AR) (Homo sapiens, UniProt P10275).
T3 construct: endogenous in cells; host or cells: VCaP
T3 sequence (P10275 1-920): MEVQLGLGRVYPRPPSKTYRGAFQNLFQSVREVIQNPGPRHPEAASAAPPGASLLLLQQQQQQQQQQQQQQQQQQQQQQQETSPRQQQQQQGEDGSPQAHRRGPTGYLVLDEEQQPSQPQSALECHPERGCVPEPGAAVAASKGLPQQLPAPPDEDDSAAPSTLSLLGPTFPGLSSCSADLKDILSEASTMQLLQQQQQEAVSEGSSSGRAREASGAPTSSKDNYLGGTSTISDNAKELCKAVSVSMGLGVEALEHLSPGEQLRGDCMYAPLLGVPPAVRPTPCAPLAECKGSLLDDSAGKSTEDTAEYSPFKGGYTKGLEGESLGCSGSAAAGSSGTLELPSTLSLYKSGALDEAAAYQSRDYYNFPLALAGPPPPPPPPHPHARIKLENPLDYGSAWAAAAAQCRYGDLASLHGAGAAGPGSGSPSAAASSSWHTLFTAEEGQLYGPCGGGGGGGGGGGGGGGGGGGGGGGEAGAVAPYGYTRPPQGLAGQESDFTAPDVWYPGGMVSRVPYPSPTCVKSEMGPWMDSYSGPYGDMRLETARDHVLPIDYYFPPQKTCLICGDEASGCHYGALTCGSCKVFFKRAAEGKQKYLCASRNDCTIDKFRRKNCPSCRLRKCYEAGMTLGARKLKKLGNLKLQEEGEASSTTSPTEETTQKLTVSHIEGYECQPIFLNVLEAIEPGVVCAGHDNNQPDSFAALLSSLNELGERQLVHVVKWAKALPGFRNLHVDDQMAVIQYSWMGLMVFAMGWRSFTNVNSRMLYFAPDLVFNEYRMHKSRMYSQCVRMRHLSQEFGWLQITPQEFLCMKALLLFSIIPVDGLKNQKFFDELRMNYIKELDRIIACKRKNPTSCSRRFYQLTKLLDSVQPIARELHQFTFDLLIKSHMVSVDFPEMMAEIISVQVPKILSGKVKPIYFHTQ
In words: Cellular assay of androgen receptor (AR) degradation (VCaP cells, ELISA). As to conditions: for Target protein degradation range / Dmax at 1 µM: androgen receptor, VCaP cells, PROTAC concentration 1 μM, relative to DMSO control; for Dmax at 1 µM: 4 h, read-out: Target protein degradation range. The method, then:
Protocol of the Cellular Assay of Androgen Receptor (AR) Degradation (VCaP Cells, ELISA).
For detection Cell Signaling PathScan Sandwich Elisa Catalog #12850 Lot 11 was used. VCaP cells were cultured in ATCC DMEM+ATCC FBS and plated 40,000/well 100 μl/well in RPMI P/S with 5% CSS Omega (bovine) serum into a 96 well plate. The cells were grown for a minimum of 3 days, dosed with compounds in 0.1% DMSO (diluted with 5% CSS) and incubated with aspiration for 4 hours. 100 μl of 1× Cell Signaling lysis buffer #9803 (36 ml dH2O+4 ml Cell Signaling lysis buffer) was added. The incubation was placed on cold room shaker for 10 min at speed 8-9. 5 μl to 100 μl of Diluent was transferred to Elisa plate (0.15 ug/ml-0.075 ug/ml) and stored at 4 C overnight on cold room shaker speed 5 (gentle swirl) and then shaken next morning at 37° C. for 30 min. The preparation was washed 4×200 μl with Elisa wash buffer and aspirated with eight-channel aspirator. 100 μl/well of AR detection Ab was added after which the preparation was covered and shaken at 37° C. for 1 hr. 100 ul TMB was added, and the mixture was shaken for 5 min while under observation. When TMB turned light blue, 100 ul of Stop solution was added, and the mixture was shaken and read at 450 nm. Also read at 562 for background subtraction.

T2 sequence (P45984 whole entry): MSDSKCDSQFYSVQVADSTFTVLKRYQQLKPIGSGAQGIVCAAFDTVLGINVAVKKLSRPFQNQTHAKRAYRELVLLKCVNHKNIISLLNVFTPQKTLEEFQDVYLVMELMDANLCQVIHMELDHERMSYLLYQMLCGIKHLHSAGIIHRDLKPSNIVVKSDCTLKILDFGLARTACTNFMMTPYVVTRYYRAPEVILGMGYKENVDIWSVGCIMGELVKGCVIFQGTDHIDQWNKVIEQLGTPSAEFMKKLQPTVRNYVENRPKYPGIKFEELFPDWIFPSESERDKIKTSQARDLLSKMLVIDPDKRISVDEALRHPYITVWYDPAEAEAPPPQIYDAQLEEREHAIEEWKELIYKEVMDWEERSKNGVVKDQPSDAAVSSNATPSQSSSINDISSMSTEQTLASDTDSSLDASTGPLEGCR
T1 sequence (P45983 whole entry): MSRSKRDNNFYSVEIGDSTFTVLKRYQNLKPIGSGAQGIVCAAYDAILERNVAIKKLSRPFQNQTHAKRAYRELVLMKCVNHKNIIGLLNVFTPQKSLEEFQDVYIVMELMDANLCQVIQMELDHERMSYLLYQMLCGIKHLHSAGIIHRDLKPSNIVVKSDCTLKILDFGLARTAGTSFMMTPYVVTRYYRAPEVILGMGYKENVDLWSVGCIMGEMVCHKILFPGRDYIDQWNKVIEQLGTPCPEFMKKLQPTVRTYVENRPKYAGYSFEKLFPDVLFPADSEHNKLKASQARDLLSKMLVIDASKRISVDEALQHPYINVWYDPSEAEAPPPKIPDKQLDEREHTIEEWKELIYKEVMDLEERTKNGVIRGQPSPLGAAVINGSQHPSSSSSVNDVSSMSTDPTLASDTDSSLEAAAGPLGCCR

A word on the DC50: it is the concentration at which degradation of the target reaches its halfway point. Consider `CN[C@@H](C)C(=O)N[C@H](C(=O)N1CC[C@@H]2CCN(CCc3ccc(OCCOCCOCCOCCOC4CCC(Nc5nccc(-c6cnn(Cc7ccccc7)c6N(C)C)n5)CC4)cc3)C[C@@H]21)C1CCCCC1` (mixture of isomers) [Example 19, (2S)—N-[(1S)-1-cyclohexyl-2-oxo-2-(6-[2-[4-([1-[(1r,4r)-4-([4-[1-benzyl-5-(dimethylamino)-1H-pyrazol-4-yl]pyrimidin-2-yl]amino)cyclohexyl]-1,4,7,10-tetraoxadodecan-12-yl]oxy)phenyl]ethyl]-octahydro-1H-pyrrolo[2,3-c]pyridin-1-yl)ethyl]-2-(methylamino)propanamide], for which, on JNK1, the JNK1 degradation range result was “A (degradation more than 60%)” and the DC50 is 1 to 100 nM. In addition, on JNK2, the JNK2 degradation range entry is on record as “A (degradation more than 60%)” and the DC50 lay in the range of 100 to 1000 nM. Take `CN[C@@H](C)C(=O)N[C@H](C(=O)N1CC[C@@H]2CCN(CCc3ccc(OCCOCCOC4CCC(Nc5nccc(-c6cnn(Cc7ccccc7)c6N(C)C)n5)CC4)cc3)C[C@@H]21)C1CCCCC1` (mixture of isomers) [Example 17, (2S)—N-[(1S)-1-cyclohexyl-2-oxo-2-[6-(2-[4-[2-(2-[[(1r,4r)-4-([4-[1-benzyl-5-(dimethylamino)-1H-pyrazol-4-yl]pyrimidin-2-yl]amino)cyclohexyl]oxy]ethoxy)ethoxy]phenyl]ethyl)-octahydro-1H-pyrrolo[2,3-c]pyridin-1-yl]ethyl]-2-(methylamino)propanamide]: on JNK1, the JNK1 degradation range result was “A (degradation more than 60%)” and the DC50 fell in the range of 100 to 1000 nM. Moreover, on JNK2, the JNK2 degradation range entry is “A (degradation more than 60%)” and the DC50 was 100 to 1000 nM. Regarding `CN[C@@H](C)C(=O)N[C@H](C(=O)N1CCC[C@H]1c1nc(-c2ccc(OCCOCCOCCOC3CCC(Nc4nccc(-c5cnn(Cc6ccccc6)c5N(C)C)n4)CC3)c3ccccc23)cs1)C1CCCCC1` (stereo partly drawn) [Example 14, (S)—N—((S)-2-((S)-2-(4-(4-(2-(2-(2-((1r,4r)-4-(4-(1-benzyl-5-(dimethylamino)-1H-pyrazol-4-yl)pyrimidin-2-ylamino)cyclohexyloxy)ethoxy)ethoxy)ethoxy)naphthalen-1-yl)thiazol-2-yl)pyrrolidin-1-yl)-1-cyclohexyl-2-oxoethyl)-2-(methylamino)propanamide], at JNK1, the JNK1 degradation range result is recorded as “A (degradation more than 60%)” and the DC50 lay within 1 to 100 nM. The JNK2 degradation range entry at JNK2 is “B (degradation between 30% and 60%)”. For “1-[(2S)-3,3-dimethyl-2-[(2S)-2-(methylamino)propanamido]butanoyl]-N-[(1S,2R)-2-[[1-(4-[[(1r,3r)-3-(3-chloro-4-cyanophenoxy)-2,2,4,4-tetramethylcyclobutyl]carbamoyl]phenyl)-1,4,7,10-tetraoxadodecan-12-yl]oxy]-2,3-dihydro-1H-inden-1-yl]pyrrolidine-2-carboxamide [Example 3]”, the “Target protein degradation range” value on Androgen receptor (AR) is “B (degradation between 30% and 60%)”.

Regarding `CN[C@@H](C)C(=O)N[C@H](C(=O)N1CCC[C@H]1c1nc(-c2ccc(OCCOCCNc3ccc(C(=O)NC4C(C)(C)C(Oc5ccc(C#N)c(Cl)c5)C4(C)C)cc3)c3ccccc23)cs1)C1CCCCC1` (stereo partly drawn) [Example 29, 4-[(2-[2-[(4-[2-[(2S)-1-[(2S)-2-cyclohexyl-2-[(2S)-2-(methylamino)propanamido]acetyl]pyrrolidin-2-yl]-1,3-thiazol-4-yl]naphthalen-1-yl)oxy]ethoxy]ethyl)amino]-N-[(1r,3r)-3-(3-chloro-4-cyanophenoxy)-2,2,4,4-tetramethylcyclobutyl]benzamide], at Androgen receptor (AR), the Dmax at 1 µM lay within 0 to 30%. Take `CN[C@@H](C)C(=O)N[C@H](C(=O)N1CCC[C@H]1c1nc(-c2ccc(OCCOCCOCCNc3ccc(C(=O)N[C@H]4C(C)(C)[C@H](Oc5ccc(C#N)c(Cl)c5)C4(C)C)cc3)c3ccccc23)cs1)C1CCCCC1` [Example 30, 4-[1-(4-[2-[(2S)-1-[(2S)-2-Cyclohexyl-2-[(2S)-2-(methylamino)propanamido]acetyl]pyrrolidin-2-yl]-1,3-thiazol-4-yl]naphthalen-1-yl)-1,4,7-trioxa-10-azadecan-10-yl]-N-[(1r,3r)-3-(3-chloro-4-cyanophenoxy)-2,2,4,4-tetramethylcyclobutyl]benzamide]: the Dmax at 1 µM at Androgen receptor (AR) lay within 0 to 30%. In the case of `CN[C@@H](C)C(=O)N[C@H](C(=O)N1CCCC1C(=O)N[C@H]1c2ccccc2C[C@H]1OCCOCCOCCOc1ccc(C(=O)NC2C(C)(C)C(Oc3ccc(C#N)c(Cl)c3)C2(C)C)cc1)C(C)(C)C` (stereo partly drawn) [Example 2, 1-[(2S)-3,3-dimethyl-2-[(2S)-2-(methylamino)propanamido]butanoyl]-N-[(1S,2R)-2-(2-[2-[2-(4-[[(1r,3r)-3-(3-chloro-4-cyanophenoxy)-2,2,4,4-tetramethylcyclobutyl]carbamoyl]phenoxy)ethoxy]ethoxy]ethoxy)-2,3-dihydro-1H-inden-1-yl]pyrrolidine-2-carboxamide], at Androgen receptor (AR), the “Target protein degradation range” value is “C (degradation between 0% and 30%)”. In the case of `CN[C@@H](C)C(=O)N[C@H](C(=O)N1CCC[C@H]1C(=O)N[C@H]1c2ccccc2C[C@H]1OCCOCCOc1ccc(N2C(=S)N(c3ccc(C#N)c(C(F)(F)F)c3)C(=O)C2(C)C)cc1)C(C)(C)C` [drawing 254, (2S)—N-[(1S,2R)-2-{2-[2-(4-{3-[4-cyano-3-(trifluoromethyl)phenyl]-5,5-dimethyl-4-oxo-2-sulfanylideneimidazolidin-1-yl}phenoxy)ethoxy]ethoxy}-2,3-dihydro-1H-inden-1-yl]-1-[(2S)-3,3-dimethyl-2-[(2S)-2-(methylamino)propanamido]butanoyl]pyrrolidine-2-carboxamide], at Androgen receptor (AR) (@ 1 μM), the “Androgen receptor (AR) degradation in VCaP cells” value came to 29%.

Take `CN[C@@H](C)C(=O)N[C@H](C(=O)N1CC[C@@H]2CCN(CCc3ccc(OCCOCCOCCNc4ccc(C(=O)N[C@H]5C(C)(C)[C@H](Oc6ccc(C#N)c(Cl)c6)C5(C)C)cc4)cc3)C[C@@H]21)C1CCCCC1` (mixture of isomers) [Example 32, 4-[1-[4-(2-[1-[(2S)-2-cyclohexyl-2-[(2S)-2-(methylamino)propanamido]acetyl]-octahydro-1H-pyrrolo[2,3-c]pyridin-6-yl]ethyl)phenyl]-1,4,7-trioxa-10-azadecan-10-yl]-N-[(1r,3r)-3-(3-chloro-4-cyanophenoxy)-2,2,4,4-tetramethylcyclobutyl]benzamide]: on Androgen receptor (AR), the Dmax at 1 µM is 0 to 30%.
